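Values below derive from 48-hour exposures of cells grown in 96-well plates, with endpoints linearly interpolated between the two concentrations bracketing the appropriate inhibition level. Here, GI50 denotes the concentration required for 50% inhibition of growth.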 The source made the active and inactive calls. Rule as the data show it: active = GI50 up to about 1.1 µM and inactive = higher.

Test systems include LXFL 529; DMS-273; RXF 631; DLD-1; SNB-78; M19-MEL; HOP-18; XF498; DMS-114.
Holding throughout (assay): inhibition of tumour cell growth, NCI panel, 48 h

Take `c1ccc2c(c1)cc1n2CC2CN=NC12` (stereo unspecified): the GI50 in the test with LXFL 529, in the test on DMS-273, in the test on RXF 631, in the test on DLD-1, in the test on SNB-78 and in the test on M19-MEL was > 100 µM (inactive) in each case.
As for `COC(=O)/C(C#N)=C1\CCC(OC)N1` (stereo unspecified), the GI50 with LXFL 529, in the test with DMS-273, with HOP-18, in the test on XF498, with DLD-1 and in the test with DMS-114 was > 100 µM (inactive) throughout. For the same compound, the GI50 with SNB-78 and in the test on M19-MEL was > 100 µM (inactive) throughout.
As for `CC1=C(C(=O)Nc2ccc([N+](=O)[O-])cc2)C(c2ccccc2F)C(C(=O)Nc2ccc([N+](=O)[O-])cc2)=C(C)N1`, the GI50 in the test on LXFL 529 was 6.92 µM (inactive); in the test with XF498 it was 1.48 µM (inactive); in the test on RXF 631 it was 21.3 µM (inactive); in the test with DLD-1, 8.45 µM (inactive); with DMS-114, 5.07 µM (inactive); in the test on M19-MEL, 14.2 µM (inactive).
With `COC(=O)c1sc(=NC(=S)N2CCCCC2)sc1C(=O)OC`, the GI50 with LXFL 529 was > 100 µM (inactive); with DMS-273, 18.2 µM (inactive); with HOP-18 it was > 100 µM (inactive); with RXF 631, 62.7 µM (inactive); with DLD-1, > 100 µM (inactive); in the test with DMS-114, 62.7 µM (inactive). Further, the GI50 is > 100 µM (inactive) in the test on SNB-78 and 5.69 µM (inactive) in the test with M19-MEL.
Turning to `Cn1cc(C(=O)c2ccccc2)cc(C(=O)c2ccccc2)c1=O`, the GI50 with LXFL 529, with DMS-273, in the test with XF498, in the test on RXF 631, in the test with DLD-1 and in the test with DMS-114 was > 100 µM (inactive) in each case. Moreover, the GI50 in the test on SNB-78 and in the test with M19-MEL was > 100 µM (inactive) in each case.
On to `CCOP(=O)(OCC)C1=NC=CC=CC1n1c(-c2ccccc2)nn(CC)c1=O` (stereo unspecified), for which the GI50 in the test on LXFL 529, with DMS-273, in the test with HOP-18, with RXF 631, with DLD-1 and in the test on DMS-114 was > 100 µM (inactive) throughout. For the same compound, the GI50 with M19-MEL was > 100 µM (inactive).
`O=C1OC(=O)c2c1c(-c1ccccc1)nc1ccccc21`: the GI50 in the test on LXFL 529, in the test on DMS-273, in the test with XF498, in the test on RXF 631, in the test on DLD-1 and in the test with DMS-114 was > 100 µM (inactive) throughout. For the same compound, the GI50 in the test on SNB-78 and in the test on M19-MEL was > 100 µM (inactive) in each case.
In the case of `COc1ccc(/C=C2\C(=O)N(C(=O)Cc3ccccc3)N=C2C)cc1OC`, the GI50 in the test with DMS-273, with HOP-18, in the test with XF498, with DMS-114, in the test on SNB-78 and in the test with M19-MEL was > 100 µM (inactive) each time.
For the compound `C=C(CCCCC)CN1CCCC1C(C)=O` (stereo unspecified), the GI50 was 27.3 µM (inactive) in the test with LXFL 529; 21.5 µM (inactive) with DMS-273; 28.9 µM (inactive) in the test with HOP-18; 15 µM (inactive) with XF498; 24.7 µM (inactive) with DLD-1; 15 µM (inactive) in the test with DMS-114. Also, the values for the GI50 with SNB-78 and with M19-MEL were 26.1 µM (inactive) and 28.9 µM (inactive), respectively.
For `COC(=O)C(=Cc1cc(OC)c(OC)c(OC)c1-c1cc2c(cc1C1(C)OCCS1)OCO2)C(=O)OC` (stereo unspecified), the GI50 in the test with LXFL 529 is 24.1 µM (inactive); in the test with DMS-273, 23.2 µM (inactive); in the test on RXF 631 it was 31.4 µM (inactive); in the test with DLD-1 it was 27.6 µM (inactive); with DMS-114 it was 19.8 µM (inactive); in the test with M19-MEL it was 23 µM (inactive).
For the compound `CCOC(=O)/C(=C/c1cccc(Cl)c1)N(CC)CC`, the GI50 is 46.7 µM (inactive) with LXFL 529; 24.2 µM (inactive) with HOP-18; 46.3 µM (inactive) in the test on XF498; 48.9 µM (inactive) in the test on DLD-1; 31 µM (inactive) in the test with DMS-114; 88.7 µM (inactive) with M19-MEL.
Take `Cc1cccc2c1Sc1ccccc1C2NC(=O)CCN(C)C` (stereo unspecified): the GI50 with LXFL 529, in the test on DMS-273, with DLD-1, in the test on DMS-114, in the test with SNB-78 and in the test on M19-MEL was > 100 µM (inactive) throughout.
With `COc1cccc(C2CC23C(=O)NC(=O)NC3=O)c1` (stereo unspecified), the GI50 in the test with LXFL 529, in the test with DMS-273, in the test on XF498, in the test with DMS-114, in the test on SNB-78 and in the test on M19-MEL was > 100 µM (inactive) each time.
As for `COc1ccc2[nH]c3ccc4cc[n+](CCN5CCC(C6CCN(CC[n+]7ccc8ccc9[nH]c%10ccc(OC)cc%10c9c8c7)CC6)CC5)cc4c3c2c1`, the GI50 with DMS-273 is 0.23 µM (active); in the test with HOP-18, 1.79 µM (inactive); in the test on XF498 it was > 60.1 µM (inactive); with DLD-1, 0.824 µM (active); in the test with DMS-114, 0.125 µM (active); in the test with SNB-78 it was 9.12 µM (inactive). In the test with M19-MEL, the GI50 is 0.719 µM (active).
Regarding `NNC(=S)N/N=C(/C(=O)Nc1ccc([N+](=O)[O-])cc1)c1nc2ccc([N+](=O)[O-])cc2nc1O`, the GI50 in the test on HOP-18 was > 100 µM (inactive); in the test with XF498, > 100 µM (inactive); with DLD-1 it was > 100 µM (inactive); with DMS-114 it was 77.6 µM (inactive); in the test on SNB-78, > 100 µM (inactive); with M19-MEL, > 100 µM (inactive).
`CC1(C)Oc2ccccc2[N+]([O-])=C1c1ccccc1`: the GI50 in the test with LXFL 529, in the test on DMS-273, with RXF 631, in the test on DLD-1, with DMS-114 and in the test on SNB-78 was > 100 µM (inactive) in each case. Further, in the test with M19-MEL, the GI50 was > 100 µM (inactive).
Consider `COc1cccc2c1C(=O)c1c(O)c3c(c(O)c1C2=O)C[C@@](O)(/C(C)=N/NC(=O)c1ccccc1)C[C@@H]3OC1CC(N)C(O)C(C)O1` (stereo partly specified), for which the GI50 was 0.157 µM (active) in the test with DMS-273; 0.454 µM (active) in the test with HOP-18; 0.0803 µM (active) in the test with XF498; 1.69 µM (inactive) with DLD-1; 0.202 µM (active) in the test with DMS-114; 0.658 µM (active) in the test on SNB-78. In the test on M19-MEL, the GI50 was 0.302 µM (active).
Consider `CCC12CCCN(Cc3ccccc3)C1c1c(n(C)c3ccccc13)[C@H](C(=O)OC)C2` (stereo partly specified), for which the GI50 with LXFL 529 was > 239 µM (inactive); with DMS-273 it was > 239 µM (inactive); with XF498 it was 201 µM (inactive); in the test on RXF 631, > 239 µM (inactive); with DLD-1, > 239 µM (inactive); in the test with DMS-114, 226 µM (inactive). For the same compound, the GI50 in the test with M19-MEL is 130 µM (inactive).
Regarding `Cc1cc(S(=O)(=O)O)c(NC(=O)C(=O)Cc2cc(=O)oc3cc(O)ccc23)cc1Cl`, the GI50 in the test with DMS-273, in the test on HOP-18, with RXF 631, in the test on DLD-1, in the test on DMS-114 and in the test with M19-MEL was > 100 µM (inactive) each time.
In the case of `O=C(O)CCCCCO`, the GI50 with LXFL 529, in the test with DMS-273, in the test with HOP-18, in the test on XF498, with DLD-1 and in the test with DMS-114 was > 100 µM (inactive) each time. The GI50 in the test on SNB-78 and in the test with M19-MEL was > 100 µM (inactive) throughout.
Regarding `COc1ccc(NC(=O)/C(=N/O)C(C)=O)cc1`, the GI50 was > 100 µM (inactive) with LXFL 529; > 100 µM (inactive) in the test on DMS-273; > 100 µM (inactive) in the test on HOP-18; 42.5 µM (inactive) with DLD-1; 36.7 µM (inactive) in the test with DMS-114; > 100 µM (inactive) in the test on SNB-78.
For `CC(=O)C1C(=O)C(=O)N(c2ccccc2C(C)C)C1=O` (stereo unspecified), the GI50 in the test on LXFL 529, with HOP-18, in the test with XF498, with SNB-78 and with M19-MEL was > 100 µM (inactive) in each case.
`COc1ccc(O)cc1` [MEQUINOL]: the GI50 is 33.6 µM (inactive) in the test on LXFL 529; > 100 µM (inactive) with XF498; > 100 µM (inactive) in the test with DLD-1; 48.4 µM (inactive) with DMS-114; > 100 µM (inactive) with SNB-78; 95.3 µM (inactive) in the test with M19-MEL.
For `CC1C[C@]2(C[C@@H](C)C(=O)O2)O[C@@H]2CC3(C)[C@@H]4CCC5C(C)(C)OC(=O)C[C@H]6OO[C@]4(CC[C@]3(C)C12)CC56O` (stereo partly specified), the GI50 in the test on LXFL 529, in the test with DMS-273, with HOP-18, in the test on XF498, in the test on DLD-1 and in the test with DMS-114 was > 100 µM (inactive) each time. In addition, the GI50 in the test on SNB-78 is > 100 µM (inactive).
In the case of `N#C/N=C(/N)NCN/C(N)=N\C#N`, the GI50 in the test with LXFL 529 is > 100 µM (inactive); in the test on DMS-273, 58.9 µM (inactive); with HOP-18, > 100 µM (inactive); in the test on RXF 631, > 100 µM (inactive); in the test with DLD-1, 81.5 µM (inactive); in the test on DMS-114, > 100 µM (inactive). Also, the GI50 in the test with SNB-78 and with M19-MEL was > 100 µM (inactive) each time.
With `CCOC(=O)C(Cc1cc(OC)c(CC(C(=O)OCC)C(=O)OCC)cc1OC)C(=O)OCC`, the GI50 in the test on LXFL 529 is > 100 µM (inactive); in the test on DMS-273, > 100 µM (inactive); in the test on XF498, 21.6 µM (inactive); in the test with DLD-1 it was > 100 µM (inactive); in the test with DMS-114, > 100 µM (inactive); in the test on SNB-78, 57.9 µM (inactive). Besides, the GI50 in the test on M19-MEL was > 100 µM (inactive).

The values above are taken from ChEMBL document CHEMBL1201862, “PubChem BioAssay data set” (2004).
